Data from PMC1310925, “Organotins Disrupt the 11β-Hydroxysteroid Dehydrogenase Type 2–Dependent Local Inactivation of Glucocorticoids” (Environmental Health Perspectives, 2005).

What was measured:
11β-HSD2 [1] = biological target: T1, 11β-HSD2 (Homo sapiens, UniProt P80365); experiment: 11β-HSD2 activity in intact stably transfected HEK-293 cells; format: cell-based; design: expressed in transfected cells; host or cells: HEK-293, stably transfected
T1 sequence (P80365 1-405): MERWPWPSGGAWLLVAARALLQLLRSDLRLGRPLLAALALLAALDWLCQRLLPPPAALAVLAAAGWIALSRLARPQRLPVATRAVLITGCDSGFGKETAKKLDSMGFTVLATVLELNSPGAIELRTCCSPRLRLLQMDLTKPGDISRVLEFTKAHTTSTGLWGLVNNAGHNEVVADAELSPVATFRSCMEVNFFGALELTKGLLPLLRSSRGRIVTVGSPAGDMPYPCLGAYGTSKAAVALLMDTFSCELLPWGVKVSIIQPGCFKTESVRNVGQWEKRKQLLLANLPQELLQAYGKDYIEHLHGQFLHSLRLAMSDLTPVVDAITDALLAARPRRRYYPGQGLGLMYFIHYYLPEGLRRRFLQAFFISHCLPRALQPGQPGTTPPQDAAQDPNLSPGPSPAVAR
Experimental: HEK-293 cells stably transfected with 11β-HSD2 (25,000 cells per well) were seeded 24 hr prior to the assay in poly-D-lysine coated 96-well Biocoat plates (Becton Dickinson, Basel, Switzerland). The medium was carefully removed, followed by the addition of 30 μL fresh medium, 10 μL medium containing various concentrations of organotins, and 10 μL radiolabeled cortisol. The reaction volume was 50 μL, with a final cortisol concentration of 40 nM. The cells were incubated for 2 hr at 37°C under 5% CO2. We stopped reactions by adding an excess of unlabeled cortisone and cortisol in methanol, and separated steroids using thin-layer chromatography, followed by scintillation counting.

11β-HSD2 [2] = biological target: T1, 11β-HSD2; experiment: 11β-HSD2 activity in lysates of stably transfected HEK-293 cells (cortisol to cortisone); format: biochemical; design: expressed in transfected cells; host or cells: HEK-293, stably transfected
Experimental: Cells were rinsed 3 times with phosphate-buffered saline (PBS) and resuspended in 2 mL ice-cold buffer TS2 (100 mM NaCl, 1 mM EGTA, 1 mM EDTA, 1 mM MgCl2, 250 mM sucrose, 20 mM Tris-HCl, pH 7.4). Aliquots of the cell suspension were frozen at −20°C, retaining full enzymatic activity for at least 3 months. For determinationof 11β-HSD2 activity, aliquots were thawed, sonicated, and diluted 1:12 in buffer TS2 (4°C). We carried out reactions in a final volume of 20 μL containing 10 nCi [1,2,6,7-^3H]-cortisol, 400-μM NAD^+, and different concentrations of unlabeled cortisol. […] Incubations were for 10 min at 37°C.

c1cc[c]([Sn][c]2ccccc2)cc1 [DPT, diphenyltin]
IC50 (11β-HSD2 [1]; HEK-293 stably transfected, 40 nM cortisol, 2 hr): 2890 ± 590 nM | 11β-HSD2 activity in intact cells, compound alone (11β-HSD2 [1]; concentrations 50% below their IC50 value): reduced 11β-HSD2 activity only slightly | IC50 (11β-HSD2 [2]; 40 nM cortisol, 400 μM NAD+, 10 min 37°C, read-out: IC50 11β-HSD2, cell lysate): 1420 ± 170 nM

N[C@@H](CCC(=O)N[C@@H](CS)C(=O)NCC(=O)O)C(=O)O [glutathione, reference compound]
prevention of organotin-dependent inhibition of 11β-HSD2 (11β-HSD2 [2]; not shown): not able to prevent

O[C@@H](CS)[C@@H](O)CS (racemic) [DTT, dithiothreitol, reference compound]
effect on 11β-HSD2 enzymatic activity (11β-HSD2 [2]; DTT alone, lysate): did not significantly alter enzymatic activity
